The values below come from ChEMBL document CHEMBL3621201, “Improving the Selectivity of Engineered Protease Inhibitors: Optimizing the P2 Prime Residue Using a Versatile Cyclic Peptide Library” (J Med Chem, 2015).

Experiment [1] addresses Coagulation factor IX (Homo sapiens) (UniProt P00740). The experiment is described as follows: Inhibition of factor 9a-beta (unknown origin) at 25 uM using Ac-QGRpNA substrate by spectrophotometry method.
Experiment [2] deals with Serine protease 1 (Homo sapiens) (UniProt P07477). The experiment is described as follows: Inhibition of beta-trypsin (unknown origin) at 25 nM using Bz-FVRpNA substrate by spectrophotometry method.
A further experiment has as its target Kallikrein-4 (Homo sapiens, UniProt Q9Y5K2). In words: Inhibition of KLK4 (unknown origin) expressed in Sf9 cells at 25 nM using FVQRpNA substrate by spectrophotometry method.
Experiment [3] deals with Kallikrein-5 (Homo sapiens) (UniProt Q9Y337). The experiment is described as follows: Inhibition of KLK5 (unknown origin) expressed in Pichia pastoris X33 at 50 nM using Ac-YRSR-pNA by spectrophotometry method.
For the next experiment, the target named is Kallikrein-7 (Homo sapiens, UniProt P49862). The experiment is described as follows: Inhibition of KLK7 (unknown origin) expressed in Pichia pastoris X33 at 200 nM using KHLY-pNA substrate by spectrophotometry method.
The target of the next experiment is Plasminogen (Homo sapiens, UniProt P00747). The experiment is described as follows: Inhibition of plasmin (unknown origin) at 50 uM using Ac-RM(O2)YRpNA substrate by spectrophotometry method.
The species entered for the next experiment is Homo sapiens. In words: Inhibition of alpha chymotrypsin (unknown origin) at 25 uM using Ac-GRPY-pNA by spectrophotometry method.
For experiment [4], the target named is T1, Coagulation factor XII (Homo sapiens) (UniProt P00748).
T1 sequence (whole entry): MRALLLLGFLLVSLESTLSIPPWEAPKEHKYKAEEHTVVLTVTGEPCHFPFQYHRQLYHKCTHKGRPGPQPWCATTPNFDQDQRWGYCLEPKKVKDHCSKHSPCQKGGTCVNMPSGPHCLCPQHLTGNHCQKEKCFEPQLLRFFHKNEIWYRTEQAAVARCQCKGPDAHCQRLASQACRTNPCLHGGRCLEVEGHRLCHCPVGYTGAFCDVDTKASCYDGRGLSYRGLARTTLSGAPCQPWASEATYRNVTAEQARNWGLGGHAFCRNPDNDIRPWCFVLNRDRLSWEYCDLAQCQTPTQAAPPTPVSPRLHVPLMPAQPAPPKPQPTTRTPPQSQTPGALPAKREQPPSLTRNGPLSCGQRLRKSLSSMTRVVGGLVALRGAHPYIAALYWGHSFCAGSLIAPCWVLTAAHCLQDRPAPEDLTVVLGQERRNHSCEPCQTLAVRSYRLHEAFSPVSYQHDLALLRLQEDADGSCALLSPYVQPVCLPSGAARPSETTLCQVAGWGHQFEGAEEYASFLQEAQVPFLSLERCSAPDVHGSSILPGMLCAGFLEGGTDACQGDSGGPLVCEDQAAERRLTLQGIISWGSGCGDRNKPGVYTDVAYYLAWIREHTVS
The experiment is described as follows: Inhibition of factor 12a-alpha (unknown origin) at 10 uM using Ac-QRFRpNA substrate by spectrophotometry method.

The target of experiment [5] is T2, Suppressor of tumorigenicity 14 protein (Homo sapiens) (UniProt Q9Y5Y6).
T2 sequence (whole entry): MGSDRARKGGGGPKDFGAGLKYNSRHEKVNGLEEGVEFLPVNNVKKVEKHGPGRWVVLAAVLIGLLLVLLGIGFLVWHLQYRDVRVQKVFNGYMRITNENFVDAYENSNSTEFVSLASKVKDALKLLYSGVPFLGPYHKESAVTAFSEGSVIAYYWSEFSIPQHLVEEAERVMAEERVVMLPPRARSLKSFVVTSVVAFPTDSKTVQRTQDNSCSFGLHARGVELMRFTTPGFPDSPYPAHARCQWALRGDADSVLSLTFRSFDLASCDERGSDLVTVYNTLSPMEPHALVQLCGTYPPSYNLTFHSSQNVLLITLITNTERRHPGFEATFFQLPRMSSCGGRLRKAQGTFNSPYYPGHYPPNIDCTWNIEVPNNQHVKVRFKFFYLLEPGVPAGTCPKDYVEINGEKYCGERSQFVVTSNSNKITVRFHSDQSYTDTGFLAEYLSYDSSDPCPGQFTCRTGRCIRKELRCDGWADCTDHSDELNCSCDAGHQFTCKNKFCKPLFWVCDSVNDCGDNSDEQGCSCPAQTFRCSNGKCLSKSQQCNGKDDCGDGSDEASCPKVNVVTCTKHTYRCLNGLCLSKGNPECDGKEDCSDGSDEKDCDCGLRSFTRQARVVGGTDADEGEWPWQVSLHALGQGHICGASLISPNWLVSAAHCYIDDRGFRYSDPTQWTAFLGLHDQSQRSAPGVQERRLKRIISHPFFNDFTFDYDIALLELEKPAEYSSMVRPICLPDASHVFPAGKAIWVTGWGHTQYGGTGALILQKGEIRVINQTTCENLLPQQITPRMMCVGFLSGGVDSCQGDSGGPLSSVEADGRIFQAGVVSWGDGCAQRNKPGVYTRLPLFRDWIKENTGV
In words: Inhibition of matriptase (unknown origin) at 10 uM using Ac-RQFRpNA substrate by spectrophotometry method.

For experiment [6], the target named is Coagulation factor XI (Homo sapiens) (UniProt P03951). In words: Inhibition of factor 11a (unknown origin) at 10 uM using Bz-FVRpNA substrate by spectrophotometry method.

A word on the inhibition: it is the share of the control response that was lost under treatment.

The structures appear in SMILES notation. Calls of active or inactive are those of the source. The calls are words filed in the database; no cut-off is given here. Bridge positions count the residues as written; N and C are the ends. Square brackets hold non-standard residues; d marks the D form. Peptide text beside a SMILES is read from it. Bip = N[C@@H](Cc1ccc(-c2ccccc2)cc1)C(=O)O

Chain of Coagulation factor IX (Homo sapiens) (P00740 47-191 limits assumed): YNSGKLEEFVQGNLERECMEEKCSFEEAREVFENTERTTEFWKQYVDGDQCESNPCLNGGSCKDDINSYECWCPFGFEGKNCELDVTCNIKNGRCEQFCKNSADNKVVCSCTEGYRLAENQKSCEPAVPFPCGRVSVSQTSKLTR
Chain of Coagulation factor IX (Homo sapiens) (P00740 227-461 limits assumed): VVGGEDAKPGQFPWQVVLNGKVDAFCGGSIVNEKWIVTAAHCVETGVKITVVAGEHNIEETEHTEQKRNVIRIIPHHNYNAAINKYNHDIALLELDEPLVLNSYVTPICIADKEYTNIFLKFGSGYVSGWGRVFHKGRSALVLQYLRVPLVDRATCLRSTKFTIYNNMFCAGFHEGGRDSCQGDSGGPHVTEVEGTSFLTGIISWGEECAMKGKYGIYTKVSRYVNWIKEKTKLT
Chain of Kallikrein-5 (Homo sapiens) (Q9Y337 whole entry): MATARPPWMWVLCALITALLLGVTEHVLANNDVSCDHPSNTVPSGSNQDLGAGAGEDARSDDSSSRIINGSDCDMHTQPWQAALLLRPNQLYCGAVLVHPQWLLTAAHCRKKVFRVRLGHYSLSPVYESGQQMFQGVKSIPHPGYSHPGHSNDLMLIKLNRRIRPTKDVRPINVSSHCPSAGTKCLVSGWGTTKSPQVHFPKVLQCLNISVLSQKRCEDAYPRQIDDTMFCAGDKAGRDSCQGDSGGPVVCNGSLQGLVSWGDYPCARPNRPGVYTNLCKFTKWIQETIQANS
Chain of Serine protease 1 (Homo sapiens) (P07477 whole entry): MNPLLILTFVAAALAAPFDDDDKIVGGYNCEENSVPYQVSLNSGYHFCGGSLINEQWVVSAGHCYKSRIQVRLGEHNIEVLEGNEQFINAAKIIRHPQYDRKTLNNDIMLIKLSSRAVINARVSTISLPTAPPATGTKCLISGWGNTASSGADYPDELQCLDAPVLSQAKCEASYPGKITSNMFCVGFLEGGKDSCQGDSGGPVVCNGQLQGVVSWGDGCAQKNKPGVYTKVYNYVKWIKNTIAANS
Chain of Kallikrein-7 (P49862 30-253 limits assumed): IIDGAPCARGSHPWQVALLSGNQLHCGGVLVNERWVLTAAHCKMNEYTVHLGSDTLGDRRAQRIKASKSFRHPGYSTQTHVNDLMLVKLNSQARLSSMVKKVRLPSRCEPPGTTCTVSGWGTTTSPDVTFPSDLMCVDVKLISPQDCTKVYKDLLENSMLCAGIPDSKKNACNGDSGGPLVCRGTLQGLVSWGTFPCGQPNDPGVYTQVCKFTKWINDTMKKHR
Chain of Plasminogen (P00747 97-580 limits assumed): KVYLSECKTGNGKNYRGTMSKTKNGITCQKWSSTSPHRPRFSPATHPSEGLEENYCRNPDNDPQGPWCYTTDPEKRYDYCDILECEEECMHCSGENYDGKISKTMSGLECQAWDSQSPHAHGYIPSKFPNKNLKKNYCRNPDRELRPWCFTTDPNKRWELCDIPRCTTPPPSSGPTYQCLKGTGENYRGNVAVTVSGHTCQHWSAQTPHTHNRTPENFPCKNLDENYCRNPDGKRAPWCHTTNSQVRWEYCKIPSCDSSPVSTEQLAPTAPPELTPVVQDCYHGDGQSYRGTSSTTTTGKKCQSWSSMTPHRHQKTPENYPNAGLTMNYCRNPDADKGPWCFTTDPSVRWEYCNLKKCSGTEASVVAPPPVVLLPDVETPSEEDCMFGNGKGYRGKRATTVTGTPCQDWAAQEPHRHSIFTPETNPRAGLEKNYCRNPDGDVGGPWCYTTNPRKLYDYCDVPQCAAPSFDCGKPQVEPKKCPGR
Chain of Plasminogen (P00747 581-810 limits assumed): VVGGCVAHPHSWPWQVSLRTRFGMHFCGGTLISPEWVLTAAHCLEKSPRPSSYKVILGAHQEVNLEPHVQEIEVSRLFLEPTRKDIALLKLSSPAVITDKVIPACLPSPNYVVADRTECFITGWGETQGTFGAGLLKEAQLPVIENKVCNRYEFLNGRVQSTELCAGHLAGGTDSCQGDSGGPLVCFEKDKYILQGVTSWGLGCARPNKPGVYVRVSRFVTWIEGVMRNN
Chain of Kallikrein-4 (Q9Y5K2 whole entry): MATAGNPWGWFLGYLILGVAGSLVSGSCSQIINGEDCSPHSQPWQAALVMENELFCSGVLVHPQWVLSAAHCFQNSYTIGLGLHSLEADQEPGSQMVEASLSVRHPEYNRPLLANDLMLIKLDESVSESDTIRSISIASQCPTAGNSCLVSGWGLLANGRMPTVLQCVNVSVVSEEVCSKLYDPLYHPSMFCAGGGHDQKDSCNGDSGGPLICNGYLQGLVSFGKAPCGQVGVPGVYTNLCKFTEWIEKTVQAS
Chain of Coagulation factor XI (Homo sapiens) (P03951 19-387 limits assumed): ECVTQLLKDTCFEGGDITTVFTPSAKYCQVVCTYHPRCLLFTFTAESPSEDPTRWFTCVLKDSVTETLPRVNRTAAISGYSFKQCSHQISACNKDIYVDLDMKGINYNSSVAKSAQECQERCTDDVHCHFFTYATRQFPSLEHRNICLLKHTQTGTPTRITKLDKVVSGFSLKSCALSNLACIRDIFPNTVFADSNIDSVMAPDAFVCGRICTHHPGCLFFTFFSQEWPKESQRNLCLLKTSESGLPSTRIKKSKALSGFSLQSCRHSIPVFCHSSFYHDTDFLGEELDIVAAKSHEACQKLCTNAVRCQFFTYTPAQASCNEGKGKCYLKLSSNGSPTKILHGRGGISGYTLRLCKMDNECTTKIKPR
Chain of Coagulation factor XI (Homo sapiens) (P03951 388-625 limits assumed): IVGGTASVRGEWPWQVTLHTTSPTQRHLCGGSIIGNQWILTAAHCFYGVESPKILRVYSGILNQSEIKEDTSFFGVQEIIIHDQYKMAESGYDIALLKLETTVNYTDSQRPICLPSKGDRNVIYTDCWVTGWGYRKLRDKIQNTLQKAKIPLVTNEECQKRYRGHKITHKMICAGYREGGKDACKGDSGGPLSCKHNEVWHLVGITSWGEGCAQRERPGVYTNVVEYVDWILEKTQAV

For `CC[C@H](C)[C@@H]1NC(=O)[C@@H]2CCCN2C(=O)[C@@H]2CCCN2C(=O)[C@H](CCC(=O)O)NC(=O)[C@H](CO)NC(=O)[C@H](CCCNC(=N)N)NC(=O)[C@H]([C@@H](C)O)NC(=O)[C@@H]2CSSC[C@H](NC1=O)C(=O)N[C@@H](CC(N)=O)C(=O)N1CCC[C@H]1C(=O)N[C@@H](CC(N)=O)C(=O)NCC(=O)N[C@@H]([C@@H](C)O)C(=O)N2` (cyclo(CNPNGTCTRSEPPI); disulfide 1-7), the inhibition in experiment [1] was 54%. Also, the inhibition entry (in experiment [2]; at Kallikrein-4) was “inactive” each time.
For `CC[C@H](C)[C@@H]1NC(=O)[C@@H]2CCCN2C(=O)[C@@H]2CCCN2C(=O)CNC(=O)[C@H](CO)NC(=O)[C@H](CCCNC(=N)N)NC(=O)[C@H]([C@@H](C)O)NC(=O)[C@@H]2CSSC[C@H](NC1=O)C(=O)N[C@@H](CC(N)=O)C(=O)N1CCC[C@H]1C(=O)N[C@@H](CC(N)=O)C(=O)NCC(=O)N[C@@H]([C@@H](C)O)C(=O)N2` (cyclo(CNPNGTCTRSGPPI); disulfide 1-7), the inhibition entry in experiment [2] was “inactive”.
Turning to `CC[C@H](C)[C@@H]1NC(=O)[C@@H]2CCCN2C(=O)[C@@H]2CCCN2C(=O)[C@H](Cc2cnc[nH]2)NC(=O)[C@H](CO)NC(=O)[C@H](CCCNC(=N)N)NC(=O)[C@H]([C@@H](C)O)NC(=O)[C@@H]2CSSC[C@H](NC1=O)C(=O)N[C@@H](CC(N)=O)C(=O)N1CCC[C@H]1C(=O)N[C@@H](CC(N)=O)C(=O)NCC(=O)N[C@@H]([C@@H](C)O)C(=O)N2` (cyclo(CNPNGTCTRSHPPI); disulfide 1-7), the inhibition result in experiment [3] was “inactive”. The inhibition result on Kallikrein-7 was “Active”.
In the case of `CC[C@H](C)[C@@H]1NC(=O)[C@@H]2CCCN2C(=O)[C@@H]2CCCN2C(=O)[C@H](CCCCN)NC(=O)[C@H](CO)NC(=O)[C@H](CCCNC(=N)N)NC(=O)[C@H]([C@@H](C)O)NC(=O)[C@@H]2CSSC[C@H](NC1=O)C(=O)N[C@@H](CC(N)=O)C(=O)N1CCC[C@H]1C(=O)N[C@@H](CC(N)=O)C(=O)NCC(=O)N[C@@H]([C@@H](C)O)C(=O)N2` (cyclo(CNPNGTCTRSKPPI); disulfide 1-7), the values for the inhibition (against Plasminogen; in experiment [1]) were 60% and 43%, respectively.
Regarding `CC[C@H](C)[C@@H]1NC(=O)[C@@H]2CCCN2C(=O)[C@@H]2CCCN2C(=O)[C@H](CC(C)C)NC(=O)[C@H](CO)NC(=O)[C@H](CCCNC(=N)N)NC(=O)[C@H]([C@@H](C)O)NC(=O)[C@@H]2CSSC[C@H](NC1=O)C(=O)N[C@@H](CC(N)=O)C(=O)N1CCC[C@H]1C(=O)N[C@@H](CC(N)=O)C(=O)NCC(=O)N[C@@H]([C@@H](C)O)C(=O)N2` (cyclo(CNPNGTCTRSLPPI); disulfide 1-7), in experiment [2], the inhibition was 52%.
Same read-out and setting: the same measure for `CC[C@H](C)[C@@H]1NC(=O)[C@@H]2CCCN2C(=O)[C@@H]2CCCN2C(=O)[C@@H]2CCCN2C(=O)[C@H](CO)NC(=O)[C@H](CCCNC(=N)N)NC(=O)[C@H]([C@@H](C)O)NC(=O)[C@@H]2CSSC[C@H](NC1=O)C(=O)N[C@@H](CC(N)=O)C(=O)N1CCC[C@H]1C(=O)N[C@@H](CC(N)=O)C(=O)NCC(=O)N[C@@H]([C@@H](C)O)C(=O)N2` (cyclo(CNPNGTCTRSPPPI); disulfide 1-7): “inactive”.
`CC[C@H](C)[C@@H]1NC(=O)[C@@H]2CCCN2C(=O)[C@@H]2CCCN2C(=O)[C@H](CCC(N)=O)NC(=O)[C@H](CO)NC(=O)[C@H](CCCNC(=N)N)NC(=O)[C@H]([C@@H](C)O)NC(=O)[C@@H]2CSSC[C@H](NC1=O)C(=O)N[C@@H](CC(N)=O)C(=O)N1CCC[C@H]1C(=O)N[C@@H](CC(N)=O)C(=O)NCC(=O)N[C@@H]([C@@H](C)O)C(=O)N2` (cyclo(CNPNGTCTRSQPPI); disulfide 1-7): the inhibition result in experiment [3] is “inactive”. Further, the inhibition entry on Kallikrein-7 is “Active”.
Take `CC[C@H](C)[C@@H]1NC(=O)[C@@H]2CCCN2C(=O)[C@@H]2CCCN2C(=O)[C@H](CCCNC(=N)N)NC(=O)[C@H](CO)NC(=O)[C@H](CCCNC(=N)N)NC(=O)[C@H]([C@@H](C)O)NC(=O)[C@@H]2CSSC[C@H](NC1=O)C(=O)N[C@@H](CC(N)=O)C(=O)N1CCC[C@H]1C(=O)N[C@@H](CC(N)=O)C(=O)NCC(=O)N[C@@H]([C@@H](C)O)C(=O)N2` (cyclo(CNPNGTCTRSRPPI); disulfide 1-7): the inhibition against Plasminogen stood at 23%; in [1], 43%; in experiment [2], 65%; in the experiment listed under Homo sapiens, 57%. Further, on Kallikrein-4, the inhibition entry is “Active”.
With `CC[C@H](C)[C@@H]1NC(=O)[C@@H]2CCCN2C(=O)[C@@H]2CCCN2C(=O)[C@H](CO)NC(=O)[C@H](CO)NC(=O)[C@H](CCCNC(=N)N)NC(=O)[C@H]([C@@H](C)O)NC(=O)[C@@H]2CSSC[C@H](NC1=O)C(=O)N[C@@H](CC(N)=O)C(=O)N1CCC[C@H]1C(=O)N[C@@H](CC(N)=O)C(=O)NCC(=O)N[C@@H]([C@@H](C)O)C(=O)N2` (cyclo(CNPNGTCTRSSPPI); disulfide 1-7), in experiment [3], the inhibition result was “inactive”. Moreover, on Kallikrein-7, the inhibition entry was “Active”.
For `CC[C@H](C)[C@@H]1NC(=O)[C@@H]2CCCN2C(=O)[C@@H]2CCCN2C(=O)[C@H](C(C)C)NC(=O)[C@H](CO)NC(=O)[C@H](CCCNC(=N)N)NC(=O)[C@H]([C@@H](C)O)NC(=O)[C@@H]2CSSC[C@H](NC1=O)C(=O)N[C@@H](CC(N)=O)C(=O)N1CCC[C@H]1C(=O)N[C@@H](CC(N)=O)C(=O)NCC(=O)N[C@@H]([C@@H](C)O)C(=O)N2` (cyclo(CNPNGTCTRSVPPI); disulfide 1-7), the inhibition at Plasminogen turned out to be 25%; in [4] it was 80%; in experiment [2] it was 75%; at Kallikrein-4, 92%; in the experiment listed under Homo sapiens it was 76%; in [5], 54%. Besides, in experiment [6], the inhibition amounted to 65%.
`CC[C@H](C)[C@@H]1NC(=O)[C@@H]2CCCN2C(=O)[C@@H]2CCCN2C(=O)[C@H](Cc2c[nH]c3ccccc23)NC(=O)[C@H](CO)NC(=O)[C@H](CCCNC(=N)N)NC(=O)[C@H]([C@@H](C)O)NC(=O)[C@@H]2CSSC[C@H](NC1=O)C(=O)N[C@@H](CC(N)=O)C(=O)N1CCC[C@H]1C(=O)N[C@@H](CC(N)=O)C(=O)NCC(=O)N[C@@H]([C@@H](C)O)C(=O)N2` (cyclo(CNPNGTCTRSWPPI); disulfide 1-7): the inhibition entry in experiment [3] is “Active”. Moreover, the figures for the inhibition (in experiment [4]; in the experiment listed under Homo sapiens) were 87% and 63%, respectively.
For the compound `CC[C@H](C)[C@@H]1NC(=O)[C@@H]2CCCN2C(=O)[C@@H]2CCCN2C(=O)[C@H](Cc2ccc(-c3ccccc3)cc2)NC(=O)[C@H](CO)NC(=O)[C@H](CCCNC(=N)N)NC(=O)[C@H]([C@@H](C)O)NC(=O)[C@@H]2CSSC[C@H](NC1=O)C(=O)N[C@@H](CC(N)=O)C(=O)N1CCC[C@H]1C(=O)N[C@@H](CC(N)=O)C(=O)NCC(=O)N[C@@H]([C@@H](C)O)C(=O)N2` (cyclo([Bip]PPICNPNGTCTRS); disulfide 5-11), the inhibition result (in experiment [3]; on Kallikrein-4) was “Active” each time. In addition, the inhibition in experiment [4] was determined as 80%.
